Results from patent publication US7951799B2, “Lactam compound, a method for producing the same, and a diabetic therapy by administering the same” (Ajinomoto Co., Inc., priority 2005, dated 2011).
Like-named read-outs stand apart in the source and are kept apart here.

What was measured:
MDCK cells [1] = test: Evaluation of membrane permeability using MDCK cells; settings: MDCK monolayer; mucous membrane side (pH 6.5) to basal membrane side (pH 7.4); 37° C.
Method: (§3) The compound of the present invention was evaluated for membrane permeability using MDCK cells, according to the method below.
(§4) An epithelial cell line derived from dog renal tubule, MDCK (Madin Darby Canine Kidney cell line), is cultured for 3 to 4 days in a flask containing 10% FBS-added D-MEM/F12 culture medium (Manufactured by Gibco) at 37° C. in a carbon dioxide incubator. The cells are detached from the flask with a Trypsin/EDTA solution (Manufactured by Gibco), and unicellularized by pipetting. The cells are suspended in the same medium as described above and placed in a transwell (mucous membrane-side well) of a Transwell plate (manufactured by COSTAR) at 2×10^5 cell/well in a volume of 0.1 ml. The transwell is transferred to the basal membrane-side well where 0.6 ml of the same culture medium has been placed, and the cells are cultured at 37° C. in a carbon dioxide incubator for 3 days. After the culture, the culture media in the mucous membrane-side well and the basal membrane-side well are exchanged for the same culture medium, incubated under the same condition for one day. Thus, satisfactory MDCK monolayer culture cells are obtained.
(§5) During in vitro permeation-absorption experiments, the culture media are eliminated from both wells, the mucous membrane-side well is washed with PBS buffer solution (pH 6.5), and the basal membrane-side well is washed with PBS buffer solution (pH 7.4). Next, 0.1 ml of PBS buffer solution (pH6.5) is added to the mucous membrane-side well, 0.6 ml of PBS buffer solution (pH 7.4) is added to the basal membrane-side well, and equilibration is carried out by incubating for 15 minutes in a 37° C. incubator.
(§6) The mucous membrane-side well is exchanged for 0.1 ml of a solution containing the test substance prepared with PBS buffer solution (pH6.5), and time point when the well is transferred to the basal membrane-side well substituted with 0.6 ml of PBS buffer solution (pH7.4) is taken as the permeation-absorption start time, and thereafter, sampling is performed from the basal membrane-side well over time. The amounts of test substance in the samples sampled in this way are measured by HPLC analysis, and the amount of the substance permeated and absorbed from the mucous membrane side to the basal membrane side according to the reaction time is determined to determine the permeation coefficient (cm/sec).

rat adipocytes = test: Evaluation of sugar transport activity (2-[14C(U)]-deoxy-D-glucose incorporation); type: cell-based; settings: for EC50 (concentration of test compound corresponding to 50% enhancement action of sugar transport): enhancement action of insulin (100 nM) taken as 100%, 30 min preculture at 37° C.
Method: Three male Wistar rats (6 to 7 weeks old) were bled by decapitation, and then laparotomized to extract 3 g of paratesticular fat tissue. […] An amount of 8 mg of collagenase (Type I) was added to carry out digestion treatment for 35 minutes, and undigested fragments were eliminated with a nylon mesh to obtain approximately 3 ml of isolated adipocytes. Collagenase was eliminated by buffer exchange, then, 2% BSA/KRH solution was added for re-suspension to obtain 15 ml of adipocyte suspension. The evaluation of sugar transport activity of the compound of the present invention was carried out with the methods described in the literature (Annual Review of Biochemistry, Volume 55, Page 1059, 1986) as a reference. That is to say, the above adipocyte suspension was distributed into polystyrene test tube, 200 μl each, 100 μl of solution of test substance (10 mg/ml of dimethylsulfoxide solution diluted with KRH) was added, and cultured while shaking at 37° C. for 30 minutes.

C57BL/KsJ-db/dbJcl mice = test: Evaluation of hypoglycemic action in pathologic mouse; type: in vivo; settings: 120 minutes after administration, fasted 20 hours
Method: (§1) C57BL/KsJ-db/dbJcl mice (8 to 9 weeks old) or GK/Jcl rats fasted for 20 hours were administered with the test compound by a single oral administration, blood was collected from the tail vein immediately before administration and 30, 60, 120 and 180 minutes after administration, and the blood glucose level was measured with Fuji DryChem5500 (glucose oxidase method). For the test animals, a group comprised 4 to 5 subjects, and the blood glucose level was determined as mean values. The test compound was administered by dissolving in an aqueous solution of 50% polyethyleneglycol 400, or 100% polyethyleneglycol 400.
(§2) The degrees of hypoglycemia calculated based on the blood glucose levels measured according to the methods described above are shown in Table 5 (mouse) and Table 6 (rat). The degree of hypoglycemia was calculated as the percentage of the difference between the blood glucose level at one time point 120 minutes after administration and blood glucose level immediately before administration, with respect to the blood glucose level immediately before administration.

GK/Jcl rats = test: Evaluation of hypoglycemic action in pathologic rat; type: in vivo; settings: 120 minutes after administration, fasted 20 hours
Method: as §1, §2

MDCK cells [2] = settings: dog
Method: as §3, §4, §5, §6

[3] = 3 mg/kg single oral administration
[4] = 10 mg/kg single oral administration

Compound	Permeation coefficient (MDCK cells [1])	EC50 (concentration of test compound corresponding to 50% enhancement action of sugar transport) (rat adipocytes) [µg/mL]	Degree of hypoglycemia (C57BL/KsJ-db/dbJcl mice; [3]) [%]	Degree of hypoglycemia (C57BL/KsJ-db/dbJcl mice; [4]) [%]	other results
O=C1NCC2=C1[C@@H](c1cccc3ccoc13)N(C(=O)CO)[C@@H]1CCCC[C@H]1N2 [Example 1]	8 10^−7 cm/sec	0.65	4	51	
COCC(=O)N1[C@@H]2CCCC[C@H]2NC2=C(C(=O)NC2)[C@H]1c1cccc2cc[nH]c12 [Example 5]	20 10^−7 cm/sec	0.26	28	41	
O=C1NCC2=C1[C@@H](c1cccc3ccoc13)N(C(=O)C(F)F)[C@@H]1CCCC[C@H]1N2 [Example 6]	8 10^−7 cm/sec	0.58			
O=C1NCC2=C1[C@@H](c1cccc3ccoc13)N(C(=O)C(F)(F)F)[C@@H]1CCCC[C@H]1N2 [Example 7]		1.94			
O=C1NCC2=C1[C@@H](c1cccc3ccsc13)N(C(=O)CO)[C@@H]1CCCC[C@H]1N2 [Example 8]		0.61	26	23	
Cc1cc2cccc([C@@H]3C4=C(CNC4=O)N[C@@H]4CCCC[C@H]4N3C(=O)CO)c2o1 [Example 9]	40 10^−7 cm/sec	0.92			Degree of hypoglycemia (GK/Jcl rats; [3]): 30%; Degree of hypoglycemia (GK/Jcl rats; [4]): 37%
Cc1cc2cccc([C@@H]3C4=C(CNC4=O)N[C@@H]4CCCC[C@H]4N3C(=O)CO)c2[nH]1 [Example 11]		0.73			
COCC(=O)N1[C@@H]2CCCC[C@H]2NC2=C(C(=O)NC2)[C@H]1c1cccc2cc(C)[nH]c12 [Example 12]	20 10^−7 cm/sec	0.63			Degree of hypoglycemia (GK/Jcl rats; [4]): 34%
O=C1NCC2=C1[C@@H](c1cccc3c1OCC3)N(C(=O)CO)[C@@H]1CCCC[C@H]1N2 [Example 13]		0.90			
O=C1NCC2=C1[C@@H](c1cccc3ccnn13)N(C(=O)CO)[C@@H]1CCCC[C@H]1N2 [Example 14]		1.3			Degree of hypoglycemia (GK/Jcl rats; [4]): 36%
O=C1NCC2=C1[C@@H](c1cccc3cccnc13)N(C(=O)CO)[C@@H]1CCCC[C@H]1N2 [Example 16]		1.36	12	36	Permeation coefficient (MDCK cells [2]): 9 10^−7 cm/sec
O=C1NCC2=C1[C@@H](c1cccc3cccnc13)N(C(=O)C(F)F)[C@@H]1CCCC[C@H]1N2 [Example 17]		0.59			Permeation coefficient (MDCK cells [2]): 10 10^−7 cm/sec; Degree of hypoglycemia (GK/Jcl rats; [4]): 35%
CSc1ccsc1[C@@H]1C2=C(CNC2=O)N[C@@H]2CCCC[C@H]2N1C(=O)CO [Example 18]		3.1	21	41	
C=Cc1ccccc1[C@@H]1C2=C(CNC2=O)N[C@@H]2CCCC[C@H]2N1C(=O)CO [Example 19]	10 10^−7 cm/sec	0.45	31	36	
insulin					sugar transport enhancement action compared to non-insulin added control group (rat adipocytes; insulin 100 nM): 3-9 times
